Data from patent publication EP2754453A1, “Conjugate of a cationic antimicrobial peptide and of a fatty acid for use as an anti-cancer agent” (UNIVERSITY COLLEGE DUBLIN, priority 2013, dated 2014).
Like-named read-outs stand apart in the source and are kept apart here.

Experiments:
lung carcinoma (A549) = experiment: MTT cell viability assay (anti-proliferation activity); format: cell-based, human; conditions: A549, 48 h incubation; read-out: concentration at which 50% cell growth inhibition occurs (IC50)
Description: (§1) The colorectal cancer (HT-29), lung carcinoma (A549) and T-cell leukemia (Jurkat) cell lines were maintained as monolayer cultures in RPMI-1640 supplemented with 100 µg/ml streptomycin, 100 U/ml penicillin and 10% (v/v) foetal bovine serum (FBS) (all from Sigma, Ireland). Human glioma (SNB-19), human pancreatic carcinoma (MiaPaCa) and breast carcinoma (MDA-MB-231) cells were obtained from the American Type Culture Collection (ATCC) and maintained in Dulbecco's Modified Eagle's Medium (DMEM) supplemented with 100 µg/ml streptomycin, 100 U/ml penicillin, 2 mM L-glutamine, and 10% (v/v) FBS. The melanoma cell line (WM793) was originally isolated from a superficial spreading melanoma and maintained in DMEM, supplemented with 10% (v/v) FBS, 50 µg/ml gentamicin and 4 µg/ml insulin (Sigma, Ireland). HeLa cells were obtained from the ATCC and maintained in DMEM supplemented with 100 µg/ml streptomycin, 100 U/ml penicillin, 2 mM L-glutamine, 0.1 mM non-essential amino acids (NEAA, Sigma), and 10% (v/v) FBS. Human umbilical vein endothelial cells (HUVEC) cells were obtained from Cambrex and maintained in an endothelial cell growth medium (Lonza, Dublin Ireland). Human Dermal fibroblast (HDF) cells were obtained from the European Collection of Cell Culture (ECACC) and were maintained in DMEM supplemented with 100 µg/ml streptomycin, 100 U/ml penicillin, 2 mM L-glutamine, and 10% (v/v) FBS. All cells were grown in humidified atmosphere of 95% air and 5% CO2 at 37°C.
(§2) Reduction of MTT [(3-(4,5-dimethylthiazol-2-yl)-2,5-diphenyltetrazolium bromide] by cells was assessed colorimetrically as previously described. Assays were carried out after 48 h of cell incubation (72 h for combinational studies) in the media containing test compounds at concentrations ranging from 200 µM to 0.2 µM depending upon compounds being tested.

T-cell leukemia (Jurkat) = experiment: as above; format: cell-based, human; conditions: 48 h incubation, read-out: concentration at which 50% cell growth inhibition occurs (IC50)
Description: as §1, §2

[1] = tested on: breast carcinoma (MDA-MB-231) cells; experiment: as above; format: cell-based, human; conditions: 48 h incubation, read-out: concentration at which 50% cell growth inhibition occurs (IC50)
Description: as §1, §2

HeLa cells = experiment: as above; format: cell-based, human
Description: as §1, §2

[2] = tested on: Human Dermal fibroblast (HDF) cells; experiment: as above; format: cell-based; conditions: 48 h incubation, read-out: concentration at which 50% cell growth inhibition occurs (IC50)
Description: as §1, §2

[3] = tested on: Human umbilical vein endothelial cells (HUVEC); experiment: as above; format: cell-based; conditions: 48 h incubation, read-out: concentration at which 50% cell growth inhibition occurs (IC50)
Description: as §1, §2

[4] = tested on: colorectal cancer (HT-29); experiment: as above; format: cell-based, human; conditions: HT-29, 48 h incubation; read-out: concentration at which 50% cell growth inhibition occurs (IC50)
Description: as §1, §2

[5] = tested on: melanoma cell line (WM793); experiment: as above; format: cell-based, human; conditions: WM793, 48 h incubation; read-out: concentration at which 50% cell growth inhibition occurs (IC50)
Description: as §1, §2

Human glioma (SNB-19) = experiment: as above; format: cell-based; conditions: SNB-19, 48 h incubation; read-out: concentration at which 50% cell growth inhibition occurs (IC50)
Description: as §1, §2

[6] = tested on: human pancreatic carcinoma (MiaPaCa); experiment: as above; format: cell-based; conditions: 48 h incubation, read-out: concentration at which 50% cell growth inhibition occurs (IC50)
Description: as §1, §2

Jurkat = conditions: cited from earlier work
MDA-MB-231 = conditions: cited from earlier work
MiaPaCa = experiment: Western blot analysis of apoptosis markers; format: cell-based, human; conditions: Fig. 5B
Description: (§3) Cells were lyzed and protein levels determined using the bicinchoninic acid method (Pierce, Rockford, IL). Protein samples were separated by SDS-PAGE under reducing conditions. Resolved proteins were transferred to methanol-activated polyvinylidenedifluoride (PVDF) membrane (Millipore, Bedford, MA, USA and blocked in 5% (w/v) bovine serum albumin for 1 h at room temperature. Primary antibody was applied to membranes overnight at 4°C (anti-cleaved Caspase 3, 8, 9 and poly ADP-ribose polymerase (PARP), (1:1000 dilution; Cell Signaling Technology, Danvers, USA). Chemiluminescent signal was detected using the Fluorchem FC2 Imaging System (Alpha Innotech, Switzerland). Membranes were stripped and reprobed with anti-β-actin antibodies (1:1000 dilution; Santa-Cruz Biotechnology, Santa Cruz, USA) so as to provide loading control.

HeLa = experiment: Western blot analysis of apoptosis markers; format: cell-based, human; conditions: Fig. 5A
Description: as §3

[7] = HeLa, 48 h incubation, read-out: concentration at which 50% cell growth inhibition occurs (IC50)

Substance	IC50 (lung carcinoma (A549)) [µM]	IC50 (T-cell leukemia (Jurkat)) [µM]	IC50 [1] [µM]	IC50 (HeLa cells; HeLa cells, concentration used in uptake study of biotinylated peptides (Fig. 3A), read-out: approximately the IC50 value) [µM]	IC50 (HeLa cells; [7]) [µM]	IC50 [2] [µM]	IC50 [3] [µM]	IC50 [4] [µM]	IC50 [5] [µM]	IC50 (Human glioma (SNB-19)) [µM]	IC50 [6] [µM]	cytotoxic activity (Jurkat)	cytotoxic activity (MDA-MB-231)	Caspase 8 (MiaPaCa)	apoptotic cell death (activation of caspase 3, 9 and the caspase substrate PARP) (MiaPaCa)	Caspase 8 (HeLa)	apoptotic cell death (activation of caspase 3, 9 and the caspase substrate PARP) (HeLa)
R10-kwklfkklpkflhlakkf [R10DP18L]	2.5 ± 0.7	3 ± 0.5	3.1 ± 0.8	~2.4	2.8 ± 0.3	7.9 ± 0.4	9.2 ± 0.8	–	–	–	–	–	–	–	–	–	–
Kwklfkkipkflhlakkf (SEQ ID NO: 2) [DP18]	–	–	18.6 ± 0.8	–	18 ± 0.4	–	100 ± 9	17.5 ± 0.5	22.8 ± 0.8	18.6 ± 1.5	18.9 ± 1.5	–	–	–	–	–	–
KWKLFKKIPKFLHLAKKF [P18]	–	–	–	–	–	–	–	–	–	–	–	displays cytotoxic activity	displays cytotoxic activity	–	–	–	–
C10-kwklfkklpkflhlakkf [C10DP18L]	–	3.8 ± 0.4	–	–	3 ± 0.1	–	–	–	–	4.3 ± 0.9	5 ± 1.5	–	–	–	–	–	–
Kwklfkklpkflhlakkf (SEQ ID NO: 1) [DP18L]	–	4.2 ± 0.6	13.4 ± 2.4	–	12.7 ± 1.2	–	140 ± 18	18.3 ± 0.9	18.7 ± 3	27.3 ± 1.8	13.9 ± 0.6	–	–	not detected at significant levels	induces apoptotic cell death	not detected at significant levels	induces apoptotic cell death
